System: C. auris in co-culture with 293T cells
Test: Co-culture of luciferase-expressing 293T cells with C. auris
Assay type: cell-based, Candida auris
Settings: azoffluxin and low fluconazole, 48 hours
Protocol: FIG. 10A depicts mammalian embryonic kidney (293T) cells expressing luciferase used to quantify mammalian cell growth in co-culture. Mammalian cells were seeded in 384-well plates in DMEM medium at 5×10^5 cells/mL overnight. After 24 hours the indicated concentration of compound (⋅ indicates combo treatment concentrations) was added along with 2.5×10^3 cells/mL of C. auris. Co-cultures were incubated for 48 hours at 37° C. and then the luminescence was measured as an output of mammalian cell growth. Error represents standard deviation between technical quadruplicates, (***) indicates a p-value<0.001 between 293T cells alone and co-culture growth for each condition. […] FIG. 10C depicts checkerboard assays performed as described in FIG. 2B with C. auris Clade IV isolate B11801. Relative growth was measured after 24 hours using OD600 and normalized to no-drug control wells (see color bar). The FICI calculated for each checkerboard is shown in the top right of each plot, with values<0.5 indicating synergy. FIG. 10D depicts kidney fungal burden (CFU) in mice from each treatment group (n=3) that had been infected with C. auris B11801. […] The significance of differences between combination treatment and treatment with each compound alone was determined by two-tailed unpaired student t-test, (***) p-value<0.001. […]

SMILES: C=C(C)C[C@@H](O)COc1cc2c(cc1C1(c3cc4c(cc3OC[C@H](O)CC(=C)C)OCO4)C(=O)Nc3cc(F)ccc31)OCO2 [CMLD012336]
- rescue of human cells in co-culture (luminescence): dramatic rescue of the human cells

Source: US11773086B2, “Fungal modulators” (TRUSTEES OF BOSTON UNIVERSITY, priority 2020, dated 2023)
